Molecular target: human PCSK9 (Homo sapiens, UniProt Q8NBP7)
Assay: PCSK9 ligand binding assay (TR-FRET): interference with binding of human PCSK9 to human LDLR
Conditions: for IC50: Human PCSK9 Alexa Fluor 647 / Human LDLR extracellular domain-Europium Kryptate; for Max % inhibition: efficacy (Amax), 100% = 1 uM unlabeled human PCSK9, 0% = DMSO
Description: Example 10: PCSK9 Ligand Binding Assay
The PCSK9 binding of the compounds of the disclosure were measured using a time resolved fluorescence resonance energy transfer (TR-FRET) assay. This time resolved fluorescence resonance energy transfer (TR-FRET) assay measures the ability of a compound of the present disclosure to interfere with the binding of human PCSK9 to human LDLR, providing measures of both potency (IC50) and efficacy (Amax).
Human PCSK9 Alexa Fluor 647
Human LDLR extracellular domain-Europium Kryptate
Proxi plate-low volume assay plate (PerkinElmer #6008280)
Greiner V-bottom (Greiner BioOne #781280)
Assay Buffer • 20 mM HEPES, pH 7.5 • 150 mM NaCl • 1 mM CaCl2 • 0.01% v/v Tween20 • 0.01% w/v BSA
A master compound plate was prepared in a Greiner V bottom plate by diluting compounds of the disclosure in dimethylsulfoxide to the correct concentration for the desired top concentration based on the desired final concentration: for a 30 uM final concentration the master plate concentration is 1.5 mM (68 uL DMSO+12 uL 10 mM of a compound of the disclosure), for a 10 uM final concentration the master plate concentration is 0.5 mM (76 uL DMSO+4 uL 10 mM of a compound of the disclosure), for a 3 uM final concentration the master plate concentration is 150 uM (69 uL DMSO+1 uL 10 mM of a compound of the disclosure). These solutions were pipetted into columns 1 and 11 of the compound plate. Threefold serial dilutions were generated in columns 2-10 and 12-20 of the compound plate by transferring 10 uL into 20 uL of DMSO. Columns 21 and 22 of the compound plate were negative controls containing DMSO alone.
An intermediate plate was generated in a Greiner V bottom plate by transferring 8 uL from each well of the master plate into a corresponding well containing 92 uL of assay buffer and mixing thoroughly.
A Proxi plate-low volume assay plate was used for the assay. To all wells of the plate was added 10 uL of 16 nM Human PCSK9 Alexa Fluor 647, followed by 5 uL from the intermediate plate. For the positive control wells in columns 23 and 24 of the plate, 5 uL of unlabeled human PCSK9 was added at 4 uM in assay buffer containing 8% DMSO. Following a 30 minute incubation, 5 uL of 4 nM Human LDLR extracellular domain-Europium Kryptate was added and the mixture was incubated for an additional 2 hours.
The TR-FRET signal was measured on an EnVision or PheraStar instrument with a 60 ms delay, 330 nm excitation and 665 nm emission (FRET), and 330 nm excitation and 615 nm (Europium). The FRET ratio (FRET/Europium) was used for calculations.
No inhibition (0%) was observed from the wells containing DMSO (Control) in columns 21 and 22 of the compound plate. Full inhibition (100%) was observed from the wells containing 1 uM human PCSK9 (Control) in columns 23 and 24 of the plate. Data is expressed as percent inhibition: (value—0%)/(100%-0%).

Sequence of human PCSK9 (Q8NBP7 153-692): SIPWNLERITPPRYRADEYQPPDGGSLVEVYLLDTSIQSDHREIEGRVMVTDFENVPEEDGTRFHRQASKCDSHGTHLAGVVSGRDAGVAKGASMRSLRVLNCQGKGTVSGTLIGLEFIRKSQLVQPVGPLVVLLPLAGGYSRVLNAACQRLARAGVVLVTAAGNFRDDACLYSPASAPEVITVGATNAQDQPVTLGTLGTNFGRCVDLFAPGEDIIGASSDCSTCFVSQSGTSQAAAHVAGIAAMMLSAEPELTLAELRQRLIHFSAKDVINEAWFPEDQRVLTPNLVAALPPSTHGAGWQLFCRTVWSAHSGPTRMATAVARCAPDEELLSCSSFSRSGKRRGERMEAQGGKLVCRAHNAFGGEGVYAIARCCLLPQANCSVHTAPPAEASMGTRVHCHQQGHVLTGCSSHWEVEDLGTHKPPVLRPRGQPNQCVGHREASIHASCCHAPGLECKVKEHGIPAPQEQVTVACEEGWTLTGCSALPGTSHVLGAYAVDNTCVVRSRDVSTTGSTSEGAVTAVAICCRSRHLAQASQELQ
Sequence of human PCSK9 (Q8NBP7 31-152 partner limits assumed): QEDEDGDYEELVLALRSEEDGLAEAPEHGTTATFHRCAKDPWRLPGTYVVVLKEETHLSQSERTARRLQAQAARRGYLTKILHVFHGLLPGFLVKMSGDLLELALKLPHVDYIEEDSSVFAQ

| IC50 [nM] | Max % inhibition [%] | SMILES |
| --- | --- | --- |
| 0.754 | 102.6 | C[C@H]1C(=O)N[C@@H](CO)C(=O)N(C)[C@@]2(Cc3ccc(Cl)cc3)CCCN(C2)C(=O)[C@H](Cc2ccccc2)CC(=O)N1Cc1ccc(Cl)cc1Oc1ccc(-c2cnc(CN(C)C)n2C)nc1 [Compound 71] |
| 1.28 | 113.6 | C[C@H]1C(=O)N[C@@H](CO)C(=O)N[C@@]2(Cc3ccc(Cl)cc3)CCCN(C2)C(=O)[C@H](CC(F)(F)F)CC(=O)N1Cc1ccc(Cl)cc1Oc1ccc(-c2cnc(CN(C)C(C)(C)C)n2C)cc1 [Compound 143, (3S, 7S, 10S, 13R)-6-(2-(4-(2-((tert-butyl(methyl)amino)methyl)-1-methyl-1H-imidazol-5-yl)phenoxy)-4-chlorobenzyl)-13-(4-chlorobenzyl)-10-(hydroxymethyl)-7-methyl-3-(2,2,2-trifluoroethyl)-1,6,9,12-tetraazabicyclo[11.3.1]heptadecane-2,5,8,11-tetraone] |
| 0.37 | 108.5 | C[C@H]1C(=O)N[C@@H](CO)C(=O)N(C)[C@@]2(Cc3ccc(Cl)cc3)CCCN(C2)C(=O)[C@H](CC(F)(F)F)CC(=O)N1Cc1c(F)cc(Cl)cc1Oc1ccc(-c2cnc(CN(C)C)n2C)cc1 [Compound 82, (3S,7S,10S,13R)-6-(4-Chloro-2-(4-(2-((dimethylamino)methyl)-1-methyl-1H-imidazol-5-yl)phenoxy)-6-fluorobenzyl)-13-(4-chlorobenzyl)-10-(hydroxymethyl)-7,12-dimethyl-3-(2,2,2-trifluoroethyl)-1,6,9,12-tetraazabicyclo[11.3.1]heptadecane-2,5,8,11-tetraone] |
| 0.816 | 103.7 | COC[C@@H]1NC(=O)[C@H](C)N(Cc2c(F)cc(Cl)cc2Oc2ccc(-c3cnc(CNC4CCC4)n3C)cc2)C(=O)C[C@@H](CC(F)(F)F)C(=O)N2CCC[C@@](Cc3ccc(Cl)cc3)(C2)NC1=O [Compound 45, (3S,7S,10S,13R)-6-(4-Chloro-2-(4-(2-((cyclobutylamino)methyl)-1-methyl-1H-imidazol-5-yl)phenoxy)-6-fluorobenzyl)-13-(4-chlorobenzyl)-10-(methoxymethyl)-7-methyl-3-(2,2,2-trifluoroethyl)-1,6,9,12-tetraazabicyclo[11.3.1]heptadecane-2,5,8,11-tetraone] |
| 0.529 | 97.5 | C[C@H]1C(=O)N[C@@H](CO)C(=O)N[C@@]2(Cc3ccc(Cl)cc3)CCCN(C2)C(=O)[C@H]([C@H]2CCc3ncccc32)CC(=O)N1Cc1ccc(Cl)cc1Oc1ccc(-c2cnc(CN(C)C)n2C)cc1.Cl [Compound 16, (3S, 7S, 10S, 13R)-6-(4-chloro-2-(4-(2-((dimethylamino)methyl)-1-methyl-1H-imidazol-5-yl)phenoxy)benzyl)-13-(4-chlorobenzyl)-3-((R)-6,7-dihydro-5H-cyclopenta[b]pyridin-5-yl)-10-(hydroxymethyl)-7-methyl-1,6,9,12-tetraazabicyclo[11.3.1]heptadecane-2,5,8,11-tetraone] |
| 3.96 | 113.1 | C[C@H]1C(=O)N[C@@H](CO)C(=O)N[C@@]2(Cc3ccc(Cl)cc3)CCCN(C2)C(=O)[C@H](CC2(C)CC2)CC(=O)N1Cc1c(F)cc(Cl)cc1Oc1ccc(-c2cnc(CN(C)C)n2C)cc1 [Compound 144, (3R, 7S, 10S, 13R)-6-(4-chloro-2-(4-(2-((dimethylamino)methyl)-1-methyl-1H-imidazol-5-yl)phenoxy)-6-fluorobenzyl)-13-(4-chlorobenzyl)-10-(hydroxymethyl)-7-methyl-3-((1-methylcyclopropyl)methyl)-1,6,9,12-tetraazabicyclo[11.3.1]heptadecane-2,5,8,11-tetraone] |
| 0.673 | 104.2 | C[C@H]1C(=O)N[C@@H](CO)C(=O)N[C@@]2(Cc3ccc(Cl)cc3)CCCN(C2)C(=O)[C@H](Cc2cccc[n+]2[O-])CC(=O)N1Cc1ccc(Cl)cc1Oc1ccc(-c2cnc(CN(C)C)n2C)cc1 [Compound 66, 2-(((3R,7S,10S,13R)-6-(4-Chloro-2-(4-(2-((dimethylamino)methyl)-1-methyl-1H-imidazol-5-yl)phenoxy)benzyl)-13-(4-chlorobenzyl)-10-(hydroxymethyl)-7-methyl-2,5,8,11-tetraoxo-1,6,9,12-tetraazabicyclo[11.3.1]heptadecan-3-yl)methyl)pyridine 1-oxide] |
| 0.93 | 113.3 | COC[C@@H]1NC(=O)[C@H](C)N(Cc2c(F)cc(Cl)cc2Oc2ccc(-c3cnc(CNC(C)(C)C)n3C)cc2)C(=O)C[C@@H](C2CC(F)(F)C2)C(=O)N2CCC[C@@](Cc3ccc(Cl)cc3)(C2)N(C)C1=O [Compound 165, (3S,7S,10S,13R)-6-(2-(4-(2-((tert-butylamino)methyl)-1-methyl-1H-imidazol-5-yl)phenoxy)-4-chloro-6-fluorobenzyl)-13-(4-chlorobenzyl)-3-(3,3-difluorocyclobutyl)-10-(methoxymethyl)-7,12-dimethyl-1,6,9,12-tetraazabicyclo[11.3.1]heptadecane-2,5,8,11-tetraone] |
| 0.74 | 98.1 | COC[C@@H]1NC(=O)[C@H](C)N(Cc2c(F)cc(Cl)cc2Oc2ccc(-c3cnc(CN)n3C)cc2)C(=O)C[C@@H](C2CC(F)(F)C2)C(=O)N2CCC[C@@](Cc3ccc(Cl)cc3)(C2)N(C)C1=O [Compound 166, (3S, 7S, 10S, 13R)-6-(2-(4-(2-(aminomethyl)-1-methyl-1H-imidazol-5-yl)phenoxy)-4-chloro-6-fluorobenzyl)-13-(4-chlorobenzyl)-3-(3,3-difluorocyclobutyl)-10-(methoxymethyl)-7,12-dimethyl-1,6,9,12-tetraazabicyclo[11.3.1]heptadecane-2,5,8,11-tetraone] |
| 103 | 92.2 | COC[C@@H]1NC(=O)[C@H](CCN2CCOCC2)N(Cc2ccc(Cl)cc2Oc2ccc(-c3cnc(CN(C)C)n3C)cc2)C(=O)C[C@@H]([C@H]2CCc3ccccc32)C(=O)N(C)C[C@@H](Cc2ccc(Cl)cc2)N(C)C1=O.Cl [Compound 125, (2S, 5S, 8R, 12S)-1-(4-chloro-2-(4-(2-((dimethylamino)methyl)-1-methyl-1H-imidazol-5-yl)phenoxy)benzyl)-8-(4-chlorobenzyl)-12-((R)-2,3-dihydro-1H-inden-1-yl)-5-(methoxymethyl)-7,10-dimethyl-2-(2-morpholinoethyl)-1,4,7,10-tetraazacyclotetradecane-3,6,11,14-tetraone] |
| 0.979 | 71.9 | C[C@H]1C(=O)N[C@@H](CO)C(=O)N[C@@]2(Cc3ccc(Cl)cc3)CCCN(C2)C(=O)[C@H]([C@@H]2CCc3ccccc32)CC(=O)N1Cc1ccc(Cl)cc1Oc1ccc(-c2cnc(C3=CCN(C)C3)n2C)cc1.Cl [Compound 77, (3S,7S,10S,13R)-6-(4-chloro-2-(4-(1-methyl-2-(1-methyl-2,5-dihydro-1H-pyrrol-3-yl)-1H-imidazol-5-yl)phenoxy)benzyl)-13-(4-chlorobenzyl)-3-((S)-2,3-dihydro-1H-inden-1-yl)-10-(hydroxymethyl)-7-methyl-1,6,9,12-tetraazabicyclo[11.3.1]heptadecane-2,5,8,11-tetraone hydrochloride] |
| 0.963 | 110.7 | C[C@H]1C(=O)N[C@@H](CO)C(=O)N[C@@]2(Cc3ccc(Cl)cc3)CCCN(C2)C(=O)[C@H](Cc2ccc(C(F)(F)F)cc2)CC(=O)N1Cc1ccc(Cl)cc1Oc1ccc(-c2cnc(CN(C)C)n2C)cc1 [Compound 62, (3R, 7S, 10S, 13R)-6-(4-chloro-2-(4-(2-((dimethylamino)methyl)-1-methyl-1H-imidazol-5-yl)phenoxy)benzyl)-13-(4-chlorobenzyl)-10-(hydroxymethyl)-7-methyl-3-(4-(trifluoromethyl)benzyl)-1,6,9,12-tetraazabicyclo[11.3.1]heptadecane-2,5,8,11-tetraone] |

Reference: patent publication US11813306B2, “Cyclic tetramer compounds as proprotein convertase subtilisin/kexin type 9 (PCSK9) inhibitors for the treatment of metabolic disorders” (NOVARTIS AG, priority 2018, dated 2023)
